Source: patent publication US20220041578A1, “ISOINDOLINE COMPOUND, AND PREPARATION METHOD, PHARMACEUTICAL COMPOSITION, AND APPLICATION OF ISOINDOLINE COMPOUND” (Shanghai Institute of Meteria Medica, Chinese Academy of …, priority 2018, published 2022)
Where two headings read alike, the source gives them in different places.

What was measured:
Assay type in all cases: cell-based
IL-2 = IL-2 expression change in anti-human CD3 stimulated PBMC (ELISA); details: compound 10 nM, anti-human CD3 10 ug/ml, 24 hours
Experimental: All operations of this experiment were carried out according to the conventional experimental process of this kind of experiment at present. Peripheral blood from healthy volunteers was collected by routine standard procedure and cultured in 1640 medium (+10% FBS) to obtain PBMC. After recovery, PBMC was centrifuged and resuspended in serum-free medium. After counting, adjusted the density to be 6.25×10^5/ml; then inoculated 160 ul to a 96-well plate, 2 holes each, 1×10^5/well; 20 ul 10× compound and DMSO were added, and incubated for 1 hour in an incubator; then 20 ul 10× anti-human CD3 was added resulting the final concentration of 10 ug/ml and incubated in an incubator for 24 hours. Centrifuged the cell plate at 1500 rpm and aspirated 50 ul supernatant according to the ELISA operation. After operating according to the kit, a microplate reader was used to read at 450 nm. The concentration of compound was 10 nM, and DMSO was added as control group. Materials used in this experiment: 96 well plate (Corning, #3599), ELISA kit (Thermo), LPS (Sigma, USA).

[1] = test system: prostate cancer cells PC-3; test: Proliferation of other tumor cells, PC-3 (WST-8); details: Homo sapiens, 96 h, PC-3 cells, 4 days, read-out: Inhibitory activity on proliferation, PC-3 (IC50)
Experimental: (§1) The human triple negative breast cancer cells MDA-MB-468 and MDA-MB-231 used in this experiment were purchased from the Shanghai Cell Bank, in which L-15 medium added with 10% fetal bovine serum (FBS) and 1% double antibody was used. At 37° C., MDA-MB-468 and MDA-MB-231 cells were cultured in an incubator without CO2. Colorectal cancer cells HCT-116 were cultured in McCOY's 5A medium with 1% double antibody and 10% fetal bovine serum (FBS); prostate cancer cells DU145 were cultured in MEM medium with 1% double antibody and 10% fetal bovine serum (FBS); prostate cancer cells PC-3 were cultured in F-12 K medium with 1% double antibody and 10% fetal bovine serum (FBS); grew at 37° C., 5% CO2.
(§2) In the cell activity test experiment, 90 μL cell suspension with appropriate concentration was added to a 96-well cell culture plate according to the cell growth, each compound to be tested was gradient diluted with the corresponding medium, 10 μL diluted compound was added to 90 μL cells, and then incubated at 37° C. for 4 days. Cell proliferation was analyzed by WST-8, which could be reduced by lactate dehydrogenase in the cells to a yellow formazan. 10 μL of WST-8 reagent (DOJINDO) was added to the cells and reacted for more than 1 hour at 37° C., DMSO-treated cells were used as […]. The absorption value of 490 nm was read by enzyme-labeled plate, and the absorption value of 690 nm was taken as the background value, and OD490-OD690 was taken as the final original data, and the data was processed by GraphPad Prism6 software. The formula for calculating the inhibition rate of the compound was: inhibition rate=(ODDMSO−ODcompound)/(ODDMSO−Oblank)×100%. The compound's proliferation inhibition IC50 was fitted by Graph Pad Prism 5.0. The experiment was repeated three times, and three parallel experiments were used to calculate the average and standard deviation each time. The cell viability test results were shown in Table 4: A means cell viability IC50<1 μM, B means cell viability 1 μM≤IC50≤20 μM, C means cell viability IC50>20 μM, NT means not tested.

[2] = test system: prostate cancer cells DU145; test: Proliferation of other tumor cells, DU145 (WST-8); details: Homo sapiens, DU-145, 96 h, 4 days, read-out: Inhibitory activity on proliferation, DU145 (IC50)
Experimental: as §1, §2

[3] = test system: Colorectal cancer cells HCT-116; test: Proliferation of other tumor cells, HCT-116 (WST-8); details: Homo sapiens, 96 h, HCT-116 cells, 4 days, read-out: Inhibitory activity on proliferation, HCT-116 (IC50)
Experimental: as §1, §2

MV-4-11 cells = test: Effect of the compound on proliferation of MV-4-11 cells (MTS); details: Homo sapiens
Experimental: MV-4-11 cells were cultured with IMDM plus 10% fetal bovine serum and collected. The cell concentration was diluted according to the action time of 7 days, and 180 ul of cell suspension was added to each well of a 96-well cell plate to make the cell count to be 2000. 20 ul of DMSO with a final concentration of 0.2% was added to the control cell wells. The compound was diluted 5-fold with the 10 mM stock solution, and 20 ul was also added to the compound cell wells (the final concentration of DMSO was 0.2%). The cells were placed in a 37° C., 5% CO2 incubator and incubated for 7 days. After preparing the reaction solution according to the MTS kit (Promega, G5430), 20 μL was added to each well, incubated in a 37° C., 5% CO2 incubator for 3-4 h. Read the 490 nm absorbance value with a microtiter plate, and used the 690 nm absorbance value as the background value and OD490-OD690 as the final initial data. The formula for calculating the inhibition rate of the compound was: inhibition rate=(OD DMSO-ODcompound)/(ODDMSO-Oblank)×100%. The compound's proliferation inhibition IC50 was fitted by Graph Pad Prism 5.0. The experiment was repeated three times, and three parallel experiments were used to calculate the average and standard deviation each time. The cell viability test results were shown in Table 3: A means cell viability IC50<1 μM, B means cell viability 1 μM≤IC50≤20 μM, C means cell viability IC50>20 μM.

MM.1S cells = test: Effect of the compound on the proliferation of MM.1S cells (MTS); details: Homo sapiens, MM1.S, 168 h, 7 days, read-out: Cell inhibitory activity (IC50)
Method in brief: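 In 1640 medium + 10% FBS, 20,000 cells per well were treated with 5-fold compound dilutions at 0.2% DMSO for 7 days at 37° C., 5% CO2. MTS was read after 3–4 h as OD490−OD690, inhibition was calculated against DMSO and blank wells, and IC50 was fitted; three independent experiments were run.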

IC50 [1]: > 20 µM
IC50 [2]: > 20 µM
IC50 [3]: > 20 µM
IC50 (MV-4-11 cells; MV4-11, 168 h, 7 days, MTS, read-out: Inhibitory activity (IC50)): > 20 µM
IC50 (MV-4-11 cells; MV4-11, read-out: cytostatic activity (IC50) on MV-4-11 cells): > 20 µM
IC50 (MM.1S cells): < 0.15 µM
Structure (SMILES): Nc1cccc2c1CN(C1CCC(=O)NC1=O)C2=O (stereo not shown) [Lenalidomide, lenalidomide, reference compound]
Increase multiple of IL-2 Expression (IL-2): >3
